According to the supplement of paper PMC10307832:

What was measured:
Test in all cases: relative viability (nuclei count vs DMSO), 5 days (fraction); higher = more cells survive
[1] = compound: CCC1=CN=CN=C1N2CCN(CC2)CC3=NC4=C(N3)C=C(C=C4)C(F)(F)F + O=C(c1cc(Cc2n[nH]c(=O)c3ccccc23)ccc1F)N1CCN(C(=O)C2CC2)CC1 [Olaparib] (partner 8 µM)
Outline: (§1)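 Relative viability divides the nuclei count in treated wells by that in vehicle wells. Lung cancer cell lines were seeded in 1536-well plates, dosed by pin tool the next day, and fixed and stained after 5 days in one step with final 0.05% Triton X-100, 1% formaldehyde and 1 ug/ml Hoechst. Dosing was a single drug or a fixed anchor-drug dose plus five library-drug doses (not always all listed) in √10 steps, and values are medians of duplicate plates imaged at 4×.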

[2] = compound: CCn1c(-c2nonc2N)nc2cnc(Oc3cccc(NC(=O)c4ccc(OCCN5CCOCC5)cc4)c3)cc21 + CS(=O)(=O)N1CCN(Cc2cc3nc(-c4cccc5[nH]ncc45)nc(N4CCOCC4)c3s2)CC1 [Pictilisib] (partner 1 µM)
Outline: as §1

[3] = compound: CCn1c(-c2nonc2N)nc2cnc(Oc3cccc(NC(=O)c4ccc(OCCN5CCOCC5)cc4)c3)cc21 + Cc1nc(Nc2ncc(C(=O)Nc3c(C)cccc3Cl)s2)cc(N2CCN(CCO)CC2)n1 [Dasatinib] (partner 0.075 µM)
Outline: as §1

[4] = compound: CCn1c(-c2nonc2N)nc2cnc(Oc3cccc(NC(=O)c4ccc(OCCN5CCOCC5)cc4)c3)cc21 + NC(=O)Nc1cc(-c2cccc(F)c2)sc1C(=O)N[C@H]1CCCNC1 [AZD7762] (partner 0.2 µM)
Outline: as §1

EBC-1
relative viability ([1]; first compound 0.04 µM): 0.691
relative viability ([1]; first compound 0.1265 µM): 0.644
relative viability ([1]; first compound 0.4 µM): 0.688
relative viability ([1]; first compound 1.265 µM): 0.675
relative viability ([1]; first compound 4 µM): 0.699
relative viability ([2]; first compound 0.04 µM): 0.355
relative viability ([2]; first compound 0.1265 µM): 0.319
relative viability ([2]; first compound 0.4 µM): 0.35
relative viability ([2]; first compound 1.265 µM): 0.31
relative viability ([2]; first compound 4 µM): 0.332

EKVX
relative viability ([3]; first compound 0.04 µM): 0.565
relative viability ([3]; first compound 0.1265 µM): 0.277
relative viability ([3]; first compound 0.4 µM): 0.434
relative viability ([3]; first compound 1.265 µM): 0.457
relative viability ([3]; first compound 4 µM): 0.427
relative viability ([1]; first compound 0.04 µM): 0.877
relative viability ([1]; first compound 0.1265 µM): 0.734
relative viability ([1]; first compound 0.4 µM): 0.89
relative viability ([1]; first compound 1.265 µM): 0.684
relative viability ([1]; first compound 4 µM): 0.862
relative viability ([2]; first compound 0.04 µM): 0.46
relative viability ([2]; first compound 0.1265 µM): 0.505
relative viability ([2]; first compound 0.4 µM): 0.491
relative viability ([2]; first compound 1.265 µM): 0.406
relative viability ([2]; first compound 4 µM): 0.481
relative viability ([4]; first compound 0.04 µM): 0.927
relative viability ([4]; first compound 0.1265 µM): 0.718
relative viability ([4]; first compound 0.4 µM): 0.478
relative viability ([4]; first compound 1.265 µM): 0.476
relative viability ([4]; first compound 4 µM): 0.621

EMC-BAC-2
relative viability ([3]; first compound 0.04 µM): 0.305
relative viability ([3]; first compound 0.1265 µM): 0.244
relative viability ([3]; first compound 0.4 µM): 0.134
relative viability ([3]; first compound 1.265 µM): 0.161
relative viability ([3]; first compound 4 µM): 0.154
relative viability ([1]; first compound 0.04 µM): 0.505
relative viability ([1]; first compound 0.1265 µM): 0.503
relative viability ([1]; first compound 0.4 µM): 0.47
relative viability ([1]; first compound 1.265 µM): 0.447
relative viability ([1]; first compound 4 µM): 0.479
relative viability ([2]; first compound 0.04 µM): 0.655
relative viability ([2]; first compound 0.1265 µM): 0.517
relative viability ([2]; first compound 0.4 µM): 0.395
relative viability ([2]; first compound 1.265 µM): 0.382
relative viability ([2]; first compound 4 µM): 0.339
relative viability ([4]; first compound 0.04 µM): 1.17
relative viability ([4]; first compound 0.1265 µM): 1.01
relative viability ([4]; first compound 0.4 µM): 0.504
relative viability ([4]; first compound 1.265 µM): 0.476
relative viability ([4]; first compound 4 µM): 0.32

EPLC-272H
relative viability ([3]; first compound 0.04 µM): 0.513
relative viability ([3]; first compound 0.1265 µM): 0.326
relative viability ([3]; first compound 0.4 µM): 0.159
relative viability ([3]; first compound 1.265 µM): 0.263
relative viability ([3]; first compound 4 µM): 0.227
relative viability ([1]; first compound 0.04 µM): 0.687
relative viability ([1]; first compound 0.1265 µM): 0.693
relative viability ([1]; first compound 0.4 µM): 0.835
relative viability ([1]; first compound 1.265 µM): 0.617
relative viability ([1]; first compound 4 µM): 0.695
relative viability ([2]; first compound 0.04 µM): 0.406
relative viability ([2]; first compound 0.1265 µM): 0.341
relative viability ([2]; first compound 0.4 µM): 0.181
relative viability ([2]; first compound 1.265 µM): 0.258
relative viability ([2]; first compound 4 µM): 0.281
relative viability ([4]; first compound 0.04 µM): 0.211
relative viability ([4]; first compound 0.1265 µM): 0.199
relative viability ([4]; first compound 0.4 µM): 0.153
relative viability ([4]; first compound 1.265 µM): 0.128
relative viability ([4]; first compound 4 µM): 0.0806

H3255
relative viability ([3]; first compound 0.04 µM): 0.375
relative viability ([3]; first compound 0.1265 µM): 0.367
relative viability ([3]; first compound 0.4 µM): 0.331
relative viability ([3]; first compound 1.265 µM): 0.341
relative viability ([3]; first compound 4 µM): 0.291
relative viability ([1]; first compound 0.04 µM): 0.597
relative viability ([1]; first compound 0.1265 µM): 0.535
relative viability ([1]; first compound 0.4 µM): 0.556
relative viability ([1]; first compound 1.265 µM): 0.504
relative viability ([1]; first compound 4 µM): 0.521
relative viability ([2]; first compound 0.04 µM): 0.63
relative viability ([2]; first compound 0.1265 µM): 0.593
relative viability ([2]; first compound 0.4 µM): 0.517
relative viability ([2]; first compound 1.265 µM): 0.473
relative viability ([2]; first compound 4 µM): 0.52
relative viability ([4]; first compound 0.04 µM): 0.967
relative viability ([4]; first compound 0.1265 µM): 0.737
relative viability ([4]; first compound 0.4 µM): 0.742
relative viability ([4]; first compound 1.265 µM): 0.383
relative viability ([4]; first compound 4 µM): 0.481

HARA
relative viability ([3]; first compound 0.04 µM): 0.243
relative viability ([3]; first compound 0.1265 µM): 0.213
relative viability ([3]; first compound 0.4 µM): 0.124
relative viability ([3]; first compound 1.265 µM): 0.0816
relative viability ([3]; first compound 4 µM): 0.074
relative viability ([1]; first compound 0.04 µM): 0.743
relative viability ([1]; first compound 0.1265 µM): 0.923
relative viability ([1]; first compound 0.4 µM): 0.763
relative viability ([1]; first compound 1.265 µM): 0.737
relative viability ([1]; first compound 4 µM): 0.84
relative viability ([2]; first compound 0.04 µM): 0.345
relative viability ([2]; first compound 0.1265 µM): 0.345
relative viability ([2]; first compound 0.4 µM): 0.157
relative viability ([2]; first compound 1.265 µM): 0.148
relative viability ([2]; first compound 4 µM): 0.0855
relative viability ([4]; first compound 0.04 µM): 0.215
relative viability ([4]; first compound 0.1265 µM): 0.161
relative viability ([4]; first compound 0.4 µM): 0.148
relative viability ([4]; first compound 1.265 µM): 0.207
relative viability ([4]; first compound 4 µM): 0.198

HCC-15
relative viability ([3]; first compound 0.04 µM): 0.618
relative viability ([3]; first compound 0.1265 µM): 0.464
relative viability ([3]; first compound 0.4 µM): 0.349
relative viability ([3]; first compound 4 µM): 0.395
relative viability ([1]; first compound 0.04 µM): 0.688
relative viability ([1]; first compound 0.1265 µM): 0.727
relative viability ([1]; first compound 0.4 µM): 0.685
relative viability ([1]; first compound 1.265 µM): 0.762
relative viability ([1]; first compound 4 µM): 0.668
relative viability ([2]; first compound 0.04 µM): 0.955
relative viability ([2]; first compound 0.1265 µM): 0.718
relative viability ([2]; first compound 0.4 µM): 0.701
relative viability ([2]; first compound 1.265 µM): 0.664
relative viability ([2]; first compound 4 µM): 0.744
relative viability ([4]; first compound 0.04 µM): 1.3
relative viability ([4]; first compound 0.1265 µM): 1.51
relative viability ([4]; first compound 0.4 µM): 0.974
relative viability ([4]; first compound 1.265 µM): 1.05
relative viability ([4]; first compound 4 µM): 0.987

HCC-44
relative viability ([1]; first compound 0.04 µM): 1.02
relative viability ([1]; first compound 0.1265 µM): 0.963
relative viability ([1]; first compound 0.4 µM): 0.978
relative viability ([1]; first compound 1.265 µM): 0.99
relative viability ([1]; first compound 4 µM): 0.966
relative viability ([2]; first compound 0.04 µM): 0.557
relative viability ([2]; first compound 0.1265 µM): 0.529
relative viability ([2]; first compound 0.4 µM): 0.276
relative viability ([2]; first compound 1.265 µM): 0.236
relative viability ([2]; first compound 4 µM): 0.244
relative viability ([4]; first compound 0.04 µM): 1.07
relative viability ([4]; first compound 0.1265 µM): 1.18
relative viability ([4]; first compound 0.4 µM): 0.916
relative viability ([4]; first compound 1.265 µM): 0.975
relative viability ([4]; first compound 4 µM): 0.333

HCC-78
relative viability ([3]; first compound 0.04 µM): 0.428
relative viability ([3]; first compound 0.1265 µM): 0.474
relative viability ([3]; first compound 1.265 µM): 0.4
relative viability ([3]; first compound 4 µM): 0.428
relative viability ([1]; first compound 0.04 µM): 0.893
relative viability ([1]; first compound 0.1265 µM): 0.669
relative viability ([1]; first compound 0.4 µM): 0.79
relative viability ([1]; first compound 1.265 µM): 0.588
relative viability ([1]; first compound 4 µM): 0.78
relative viability ([2]; first compound 0.04 µM): 0.3
relative viability ([2]; first compound 0.1265 µM): 0.311
relative viability ([2]; first compound 0.4 µM): 0.208
relative viability ([2]; first compound 1.265 µM): 0.262
relative viability ([2]; first compound 4 µM): 0.367
relative viability ([4]; first compound 0.04 µM): 0.865
relative viability ([4]; first compound 0.1265 µM): 0.821
relative viability ([4]; first compound 1.265 µM): 0.617
relative viability ([4]; first compound 4 µM): 0.906
